Measurements from article PMC10712727, “Safety, Tolerability, and Pharmacokinetics of Senaparib, a Novel PARP1/2 Inhibitor, in Chinese Patients With Advanced Solid Tumors: A Phase I Trial” (The Oncologist, 2023).
Entries after “also recorded” stand apart in the source; their conditions may differ.

Tests used:
[1] = test system: patients with advanced solid tumors; experiment: Dose-limiting toxicities, MTD and RP2D determination (modified 3 + 3 dose escalation); assay type: in vivo
Description: Dose escalation was conducted using a modified Fibonacci 3 + 3 method (Supplementary Fig. S1).[17] Patients were administered oral senaparib from a planned starting dose of 2 mg once daily (QD), with preliminary dose escalation to 120 mg via nine dose groups, in order of their entry into the study. At a given dose level, each patient received a single dose of senaparib followed by a 7-day washout period. They then entered a continuous dosing period to confirm the safety and PK profile, in which they received senaparib QD from day 1 to day 21 of each 3-week cycle. Progression to the next higher dose required approval from the Data Safety Monitoring Committee (DSMC) upon review of the safety and PK data of the previous dose. […]
DLTs were predefined toxicities (Supplementary Table S2) recorded over the 7 days following the single-dose administration of senaparib and during the first treatment cycle (day 1-day 21) for each dose group in the dose-escalation period only. […] Plasma concentrations of senaparib were determined using high-performance liquid chromatography-tandem mass spectrometry. Tumor response was assessed every 6 weeks per RECIST v1.1,[16] recording objective response rate (ORR), disease control rate (DCR), duration of response (DOR), and progression-free survival (PFS) by dose level for all patients and for those harboring BRCA^mut+ tumors.

[2] = Plasma pharmacokinetics in continuous dosing period, cycle 1 day 15 steady state (HPLC-MS/MS); assay type: in vivo, human; details: dose range of 2-120 mg
anticancer animal models = test system: anticancer animal models; design: method as in doi:10.1158/1538-7445.am2022-1399; details: in vivo studies (anticancer animal models); cited from earlier work

Compound: O=C(c1cc(Cn2c(=O)[nH]c(=O)c3c(F)cccc32)ccc1F)N1CCN(c2ncccn2)CC1 [Senaparib]
- Dose-limiting toxicities (DLTs) ([1]; DLT observation period, dose escalation, 2-120 mg QD and 50 mg BID): No dose-limiting toxicities were observed; also recorded: No DLTs were observed
- Maximum tolerated dose (MTD) ([1]; doses up to 120 mg QD): not reached
- Dose linearity [2]: Dose linearity was not observed
- Potency relative to the PARP inhibitor olaparib (anticancer animal models): 20 fold
